Measurements from ChEMBL document CHEMBL5465560, “Selectivity Literature for EUbOPEN Chemogenomic Library” (2024).
Each block holds one compound with its values, some of them ahead of it.

Legend:
[1] = test system: Mast/stem cell growth factor receptor Kit (Homo sapiens), P10721 [D816V]; settings: at 10 µM
[2] = target: T1, SNF-related serine/threonine-protein kinase (Homo sapiens) (UniProt Q9NRH2); test: Selectivity interaction (KinomeScan (DiscoverX)) EUB0001049a SNRK; settings: at 1 µM
T1 sequence (whole entry): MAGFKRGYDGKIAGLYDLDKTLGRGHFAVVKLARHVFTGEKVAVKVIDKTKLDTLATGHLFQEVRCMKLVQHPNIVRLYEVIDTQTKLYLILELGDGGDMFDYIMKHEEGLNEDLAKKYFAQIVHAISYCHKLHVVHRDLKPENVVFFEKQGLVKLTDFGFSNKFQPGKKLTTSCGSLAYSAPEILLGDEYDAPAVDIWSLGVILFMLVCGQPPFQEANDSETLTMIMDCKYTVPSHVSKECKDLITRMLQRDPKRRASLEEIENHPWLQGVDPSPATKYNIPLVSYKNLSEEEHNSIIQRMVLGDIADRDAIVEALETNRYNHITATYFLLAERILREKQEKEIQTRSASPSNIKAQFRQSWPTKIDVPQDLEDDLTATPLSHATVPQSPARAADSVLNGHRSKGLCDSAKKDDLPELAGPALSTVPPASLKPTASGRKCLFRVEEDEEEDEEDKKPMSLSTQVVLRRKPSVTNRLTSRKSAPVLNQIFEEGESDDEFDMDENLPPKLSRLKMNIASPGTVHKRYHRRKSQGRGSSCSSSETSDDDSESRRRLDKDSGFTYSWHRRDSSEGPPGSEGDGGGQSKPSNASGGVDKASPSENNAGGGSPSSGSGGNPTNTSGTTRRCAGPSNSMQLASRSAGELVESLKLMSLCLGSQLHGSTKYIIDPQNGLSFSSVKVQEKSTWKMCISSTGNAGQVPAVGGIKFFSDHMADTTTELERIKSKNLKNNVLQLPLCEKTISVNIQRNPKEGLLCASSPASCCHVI

[3] = target: T2, Mitogen-activated protein kinase kinase kinase 6 (Homo sapiens) (UniProt O95382); test: Selectivity interaction (ActivX KiNativ screen (kinase selectivity in THP-1 cell lysates)) EUB0000639a MAP3K6; format: subcellular; settings: lysate, at 0.2 µM
T2 sequence (whole entry): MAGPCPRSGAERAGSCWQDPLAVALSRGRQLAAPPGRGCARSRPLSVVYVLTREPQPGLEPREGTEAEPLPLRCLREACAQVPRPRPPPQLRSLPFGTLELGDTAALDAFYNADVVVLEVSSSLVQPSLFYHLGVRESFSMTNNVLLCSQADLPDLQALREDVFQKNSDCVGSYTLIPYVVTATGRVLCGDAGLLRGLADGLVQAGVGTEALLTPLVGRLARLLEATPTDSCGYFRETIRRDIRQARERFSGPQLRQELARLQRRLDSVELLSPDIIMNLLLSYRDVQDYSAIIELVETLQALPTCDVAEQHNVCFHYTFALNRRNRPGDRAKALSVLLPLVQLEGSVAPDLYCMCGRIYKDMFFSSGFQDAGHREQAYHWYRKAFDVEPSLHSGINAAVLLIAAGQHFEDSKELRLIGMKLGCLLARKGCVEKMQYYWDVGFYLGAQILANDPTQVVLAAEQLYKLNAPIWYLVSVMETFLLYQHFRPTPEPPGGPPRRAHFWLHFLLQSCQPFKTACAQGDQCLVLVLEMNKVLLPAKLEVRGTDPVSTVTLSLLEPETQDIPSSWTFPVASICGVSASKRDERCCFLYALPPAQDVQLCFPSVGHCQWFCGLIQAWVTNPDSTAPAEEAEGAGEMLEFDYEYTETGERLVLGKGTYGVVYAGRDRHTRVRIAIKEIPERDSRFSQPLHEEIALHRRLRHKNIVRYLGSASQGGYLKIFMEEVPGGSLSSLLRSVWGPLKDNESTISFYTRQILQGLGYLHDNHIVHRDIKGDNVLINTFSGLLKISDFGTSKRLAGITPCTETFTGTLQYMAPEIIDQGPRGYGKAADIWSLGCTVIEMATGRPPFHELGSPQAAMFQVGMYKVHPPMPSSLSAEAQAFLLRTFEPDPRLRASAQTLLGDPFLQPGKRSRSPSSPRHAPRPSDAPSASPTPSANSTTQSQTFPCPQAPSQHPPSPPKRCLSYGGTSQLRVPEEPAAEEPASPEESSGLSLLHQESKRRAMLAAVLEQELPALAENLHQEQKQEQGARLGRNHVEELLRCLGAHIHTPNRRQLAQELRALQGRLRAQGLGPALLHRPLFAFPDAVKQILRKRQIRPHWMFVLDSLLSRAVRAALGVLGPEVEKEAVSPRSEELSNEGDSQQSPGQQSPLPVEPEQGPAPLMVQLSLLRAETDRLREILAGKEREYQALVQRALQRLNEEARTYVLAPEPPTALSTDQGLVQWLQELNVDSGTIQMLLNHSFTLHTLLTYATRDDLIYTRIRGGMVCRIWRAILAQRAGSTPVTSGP

[4] = test system: Mast/stem cell growth factor receptor Kit (Homo sapiens), P10721 [V559D]; settings: at 10 µM
Sequence of Mast/stem cell growth factor receptor Kit (Homo sapiens), P10721 [V559D] (P10721 whole entry V559D): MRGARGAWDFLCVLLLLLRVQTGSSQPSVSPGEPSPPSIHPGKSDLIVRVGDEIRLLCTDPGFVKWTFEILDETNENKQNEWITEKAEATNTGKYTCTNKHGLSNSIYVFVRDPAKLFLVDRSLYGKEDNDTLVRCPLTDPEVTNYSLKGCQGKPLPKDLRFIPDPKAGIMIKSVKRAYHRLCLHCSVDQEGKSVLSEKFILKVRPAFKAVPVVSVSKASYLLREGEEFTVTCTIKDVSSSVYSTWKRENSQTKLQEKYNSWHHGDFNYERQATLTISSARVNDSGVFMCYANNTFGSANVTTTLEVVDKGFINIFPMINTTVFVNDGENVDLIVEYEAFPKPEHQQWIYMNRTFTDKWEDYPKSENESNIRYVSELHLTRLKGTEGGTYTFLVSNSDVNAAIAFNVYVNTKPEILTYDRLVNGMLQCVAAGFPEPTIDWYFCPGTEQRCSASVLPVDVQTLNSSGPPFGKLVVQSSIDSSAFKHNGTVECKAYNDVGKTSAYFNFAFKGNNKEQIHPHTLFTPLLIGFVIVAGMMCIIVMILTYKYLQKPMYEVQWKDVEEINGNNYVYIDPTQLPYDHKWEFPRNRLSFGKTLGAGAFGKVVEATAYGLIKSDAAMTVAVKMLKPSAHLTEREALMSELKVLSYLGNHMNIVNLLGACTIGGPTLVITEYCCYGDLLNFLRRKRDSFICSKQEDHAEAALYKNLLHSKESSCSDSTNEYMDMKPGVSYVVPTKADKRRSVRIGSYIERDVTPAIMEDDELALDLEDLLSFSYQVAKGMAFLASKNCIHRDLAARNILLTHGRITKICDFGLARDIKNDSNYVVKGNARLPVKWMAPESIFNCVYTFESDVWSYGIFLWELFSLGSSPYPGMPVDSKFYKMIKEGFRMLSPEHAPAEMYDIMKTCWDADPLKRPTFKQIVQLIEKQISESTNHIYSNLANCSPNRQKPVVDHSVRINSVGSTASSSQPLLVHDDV

Sequence of Mast/stem cell growth factor receptor Kit (Homo sapiens), P10721 [D816V] (P10721 whole entry D816V): as the sequence (P10721 whole entry V559D) above, with D559V, D816V counted along it

SMILES: Cc1cc([C@@H](C)Nc2ccccc2C(=O)O)c2nc(N3CCOCC3)cc(=O)n2c1 [AZD-6482]
- % of control [1]: 81%

SMILES: COc1cc(Nc2nc(C)cc(-c3cnn4nc(OC)ccc34)n2)cc(C(F)(F)F)c1
- % of control [2]: 100%

- % of inhibition [3]: -13.5%
SMILES: CC[C@@H]1[C@H](F)C(=O)N[C@@H]1COc1nccc2cc(C(N)=O)c(OC)cc12 [ZIMLOVISERTIB]

- % of control [4]: 100%
SMILES: CCN(CC)CCCCNc1ncc2cc(-c3cc(OC)cc(OC)c3)c(NC(=O)NC(C)(C)C)nc2n1
